The values below come from US20180064654A1, “Sheet Packs And Methods For Treating Skin” (ELC Management LLC, priority 2015, published 2018).

SMILES strings stand for the structures.

The test system of series [1] is PER1 gene expression in skin cells. Put plainly: PER1 gene expression in skin cells. In kind it is cell-based.
For series [2] the test system is unchanged. The note with it: "has been shown", no test described; cited from earlier work.
Series [3] has as its system per1 gene expression in normal human epidermal keratinocytes (NHEK). Nature of the series: per1 promoter luciferase reporter assay in NHEK. In kind it is cell-based. As for the experimental part: Perl gene expression in normal human epidermal keratinocytes (NHEK) donors was tested in control cells and cells exposed to ozone using the reporter assay. NHEK were plated at a concentration of 3×10^4 in a black walled, 96 well microtiter plate for 3 hours in EpiLife media. The cells were then transfected in supplement free media with a plasmid that contained luciferase as the reporter gene ligated upstream to a per1 promoter element. In addition, transfection was facilitated by addition of Plus and Lipfectamine reagents (Invitrogen, Carlsbad, Calif.). Transfection in supplement free media was carried out for an additional four hours. This “starves” the cells which in turn causes them to be synchronized in their circadian rhythms. After transfection, full media neat and containing ozone was added and incubated for 16 hours. Then a luciferase reagent, Glo-Bright (Promega Corporation, Madison, Wis.) was added and luminescence measures in an Lmax luminometer (Molecular Devices, Sunnyvale, Calif.).
The test was performed again, and in addition, a peptide with per1 gene activity was tested.
In both tests, NHEK were treated at the start of the test (0 hours) so that they were all synchronized with respect to their circadian rhythm, and expressing per1 at the same time. […]
For orientation: Reporter assays use an easily measured gene product as a stand-in for the process of interest.

For `O=C(/C=C/c1ccc(O)c(O)c1)O[C@@H](C(=O)O)[C@@H](O)C(=O)O` [caftaric acid], in series [1], the PER1 gene expression result is “does not increase PER1 gene expression”.

Take `O=C(/C=C/c1ccc(O)c(O)c1)O[C@@H](C(=O)O)[C@@H](OC(=O)/C=C/c1ccc(O)c(O)c1)C(=O)O` [cichoric acid]: the “activation of PER / PER1” value in series [2] is “suitable activator of PER and PER1”.

For the compound `O=[O+][O-]` [ozone], the per1 gene expression result in series [3] (24 hours, single treatment, compared with untreated cells (FIG. 6)) is “lesser, and about equivalent, expression of PER1”. For the same compound, the per1 activity result in series [3] (ozone treated NHEK at 0, 6 and 12 hours, vs untreated cells (FIG. 5)) is “decrease in per1 activity”.
